According to patent US20260132128A1, “COMPOUND FOR RECOVERING P53 MUTATION FUNCTION AND USE THEREOF” (SHENZHEN ZHONGGE BIOLOGICAL TECHNOLOGY CO., LTD., priority 2022, published 2026):
Like-named read-outs stand apart in the source and are kept apart here. Marks after values point to notes of the source that are not given here.

Key:
p53 Y220C [1] = target: T1, p53 Y220C (Homo sapiens, UniProt P04637, P309S/R273H/Y220C); assay: DNA binding test (HTRF): binding of P53Y220C protein to DNA; type: biochemical; settings: HTRF, activation of p53 Y220C (aa 94-312) binding to biotin DNA
T1 construct: a truncated mutant containing only amino acids 94-312 of p53; made in house; host or cells: E. coli

p53 Y220C [2] = target: T2, p53 Y220C (Homo sapiens, UniProt P04637, Y220C); assay: as above; type: biochemical; settings: multiple ratio of EC50 of the compound to the reference compound, DNA binding test
T2 construct: a truncated mutant containing only amino acids 94-312 of p53; made in house; host or cells: E. coli

NUGC-3 cells = assay: NUGC-3 cell proliferation assay (CTG); type: cell-based, human; settings: for GI50: Homo sapiens, NUGC-3, 144 h, 6 days, CTG; for Compound GI50 (nM)/Reference compound GI50 (nM): multiple ratio of GI50 of the compound to the reference compound
Procedure, shortened: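 NUGC-3 cells (250/well), plated overnight, were exposed 6 days at 37° C to compound, 10 doses of 1:3 dilutions from 10 μM top final. Viability by CellTiter-Glo luminescence; inhibition relative to 0.1% DMSO and blank, GI50 from variable-slope nonlinear fit.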

CYP 3A4 = target: T3, CYP 3A4 (Homo sapiens, UniProt P08684); assay: CYP 3A4 time-dependent inhibition test; type: in vitro ADME; settings: midazolam substrate
T3 construct: purchased BioIVT X008067
Experimental: CYP 3A4 and the test compound or mifepristone of various concentrations were added to a 96-deep well plate for pre-incubation. The plate was placed in a water bath and preheated at 37° C. for 5 min. For the 0 min pre-incubation samples, midazolam substrate was added to the incubation plate, then 10 mM NADPH solution was added, and the reaction was carried out in a 37° C. water bath for 5 min; for the 30 min pre-incubation samples with NADPH, 10 mM NADPH solution was added to the incubation plate, pre-incubated in a 37° C. water bath for 30 min, and then midazolam substrate was added and reacted in a 37° C. water bath for 5 min; for the 30 min pre-incubation samples without NADPH, the incubation plate was pre-incubated in a 37° C. water bath for 30 min, then midazolam substrate was added, 10 mM NADPH solution was added, and the reaction was carried out in a 37° C. water bath for 5 min. After the reaction was completed, the quenching solution (500 nM tolbutamide (Bide Pharmaceuticals, Cat. No. BD154332) and 10 nM terfenadine (Sigma, Cat. No. T96532)) were added to quench the reaction, and the plate was centrifuged at 3,220 g for 40 min at 4° C. The supernatant was pipetted into a new plate, the supernatant was diluted with pure water and mixed well, and the sample was analyzed using UPLC-MS/MS.

[3] = Pharmacokinetic test in mice; type: in vivo; settings: male, ICR, mouse, plasma
Experimental: ICR male mice (15 to 35 g, 5 to 10 weeks old, Shanghai Xipuer-Bikai Experimental Animal Co., Ltd.) were selected as test animals in this study. The LC-MS/MS method was used to quantitatively determine drug concentrations in the plasma of mice at different time points after intravenous injection or oral gavage administration of the test compound to evaluate the pharmacokinetic characteristics of the compound in mice. The clear solution of the test compound was injected into ICR mice via the tail vein (without fasting, solvent: 40% hydroxypropyl-β-cyclodextrin) and administered to ICR mice by oral gavage (fasting for 10 to 14 hours, free drinking water, solvent: 0.2% hydroxypropyl cellulose, 0.5% Tween 80). For intravenous administration, blood was collected from the submandibular venous plexus at 0.033, 0.083, 0.25, 0.5, 1, 2, 4, 8, and 24 hours after administration, placed in an anticoagulant tube with EDTA-K2 (Jiangsu Kangjian Medical Supplies Co., Ltd.), mixed, and centrifuged at 2-8° C., 6800 g for 6 minutes to obtain plasma; for oral gavage administration, blood was collected from the submandibular venous plexus at 0.083, 0.25, 0.5, 1, 2, 4, 6, 8, and 24 hours after administration, placed in an anticoagulant tube with EDTA-K2 (Jiangsu Kangjian Medical Supplies Co., Ltd.), mixed, and centrifuged at 2-8° C., 6800 g for 6 minutes to obtain plasma. The blood drug concentration was determined by LC-MS/MS, and the relevant pharmacokinetic parameters were calculated by the non-compartmental linear logarithmic trapezoidal method using Phoenix WinNonlin™ Version 7.0 (Pharsight, USA) pharmacokinetic software.

BxPC-3 cells = assay: BxPC-3 cell proliferation test (CTG); type: cell-based; settings: Homo sapiens, 144 h, 6 days
Experimental: To detect the inhibitory effects of the aforementioned compounds on the proliferation ability of BxPC-3 cells, 125 BxPC-3 cells (ATCC®CRL-1687) were seeded into a 384-well plate (Corning 3765), 35 μL per well, and placed in a constant temperature incubator at 37° C. and 5% CO2 overnight. Then, 40 nL of the compound was added to the 384-well plate using an Echo 655 Liquid Handler, with a maximum final concentration of 10 μM, 1:3 serial dilution, and in a total of 10 doses. Incubation was performed at 37° C., 5% CO2 for 6 days. The plate was taken out from the incubator and equilibrated at room temperature for 10 minutes. 20 μL of CTG (Promage G7572) was added to each well of the plate according to the platemap. The plate was centrifuged at 1000 rpm for 1 minute. The lysis of cells was induced by mixing on a shaker for 2 minutes. The plate was centrifuged at 1000 rpm for 1 minute. Incubation was performed at room temperature for 10 minutes to stabilize luminescence signals. Luminescence values were recorded by Envision (PerkinElmer 2105-0020). GraphPad 9.0 was used to fit the inhibition rate and compound concentration into a nonlinear regression curve (dose response-variable slope) to calculate GI50, inhibition rate={1−(A−B)/(C−B)}*100%, A=signal value of compound; B=average signal of blank control; C=average signal of negative control (wherein the negative control was 0.1% DMSO).

[4] = Liver microsome stability test, human (HLM); type: in vitro ADME; settings: human liver microsomes, NADPH; read-out: T1/2 (min) Human
Experimental: (§1) The 10 mM test compound/ketanserin (Energy Chemical, Cat. No. E020711) stock solution was diluted with acetonitrile to 0.5 mM compound/reference compound. The frozen 100 mM NADPH (MCE, Cat. No. HYF003/CS-4998) was diluted with phosphate buffer solution to a concentration of 6 mM; 20 mg/mL HLM (BioIVT, Cat. No. X008067) or MLM (BioIVT, Cat. No. M00501) was diluted with phosphate buffer solution to a concentration of 0.75 mg/ml, and added to a 96-round well plate, respectively, and shaken evenly on an oscillator at 600 rpm. The above oscillated samples were pipetted 3 times with an electric pipettor and dispensed into a new 96-well plate (containing NADPH group (n=2), NADPH-free group was added at 0 and 45 min (n=1)), and there were a total of 5 groups of 0, 5, 15, 30 and 45 min, respectively. After pre-incubation of the 5 groups of samples at 37° C. for 5 min, glacial acetonitrile was quickly added to the 0 min group for precipitation, and after rapid vortexing, K-Buffer or NADPH was added with an electric pipettor. The remaining groups were sequentially added with 6 mM NADPH to start the reaction in the order of 45, 30, 15 and 5 min samples, and K-Buffer solution was added to the NADPH-free group. After mixing at 1000 rpm in an oscillating mixer for 10 s, they were continuously incubated at 37° C. for the corresponding time. The reaction was terminated by quickly adding glacial acetonitrile internal standard using an electric pipettor; after vortexing at 900 rpm for 10 seconds, heat sealing was performed, oscillation was performed on an oscillator for 10 minutes, centrifugation was performed at 4000 rpm for 50 minutes, the supernatant was collected and diluted with pure water, and the test compound and the reference compound were quantified by LC-MS/MS analysis.

[5] = Liver microsome stability test, mouse (MLM); type: in vitro ADME; settings: mouse liver microsomes, NADPH; read-out: T1/2 (min) Mouse
Experimental: as §1

Caco-2 cells = assay: Caco-2 cell permeability test; type: in vitro ADME; settings: Caco-2, 10 μM, 120 min
Experimental: Caco-2 cells (ATCC, Cat. No. HTB-37) were inoculated to a 96-well plate (Corning HTS Transwell, Cat. No. 3391) at 1.25×10^5/cm2, and the culture medium (DMEM+10% FBS+1% Penicillin-Streptomycin Liquid (100×)+1% NEAA) was replaced every 3 to 4 days. The plate was placed in an incubator at 37° C. with 5% CO2 until a confluent cell monolayer was formed after 21 to 28 days. Before the transport experiment, the culture medium was removed from the cell culture plate, and the plate was washed twice with pre-warmed HBSS buffer (10 mM HEPES, pH 7.4), and 100 μL of HBSS buffer was added to each well. After incubation at 37° C. for 30 minutes, the TEER value was measured using a cell resistance meter (Millicell-ERS2) to confirm the integrity and density of the monolayer cells. The HBSS buffer was discarded, the upper plate containing the cell monolayer membrane was transferred to the corresponding receiving plate, 10 mM test compound stock solution was diluted to a concentration of 10 μM with HBSS transport buffer containing 0.5% BSA, and it was added to the apical side (A side) and basolateral side (B side), respectively. Incubation was carried out for 120 min at 37° C., 5% CO2, and 95% relative humidity, and the permeation of the test compound from A side to B side or from B side to A side and the efflux rate of the compound were determined. The test compound and the reference compound were quantified by LC-MS/MS analysis based on the peak area ratio of analyte/internal standard. The apparent permeability coefficient Papp (cm/s) was calculated using the following formula:
[formula] • wherein, dCr/dt represented the functional relation between cumulative concentration of compound in receptor compartment and time; V represented the volume of solution in receptor compartment (0.1 mL at apical side, and 0.25 mL at basolateral side); A represented the transport surface area, i.e., the monolayer cell area was 0.0804 cm^2; CO represented the initial concentration of compound in donor compartment.
The efflux ratio was calculated using the following formula: […]
The percent recovery was calculated using the following formula:
[formula] [formula] • wherein, Vd represented the volume of donor compartment (0.1 mL on the apical side and 0.25 mL on the basolateral side); C and Cr represented the final concentrations of the transported compound in the donor and receptor compartment, respectively; Cc represented the compound concentration in cell lysate; Vc represented the volume of insert well (which was 0.1 mL in this experiment).

[6] = 0 min pre-incubation, read-out: IC50 (μM) 0 min
[7] = 30 min pre-incubation with NADPH, read-out: IC50 (μM) 30 min, with NADPH
[8] = 30 min pre-incubation without NADPH, read-out: IC50 (μM) 30 min, without NADPH

T3 sequence (P08684 whole entry): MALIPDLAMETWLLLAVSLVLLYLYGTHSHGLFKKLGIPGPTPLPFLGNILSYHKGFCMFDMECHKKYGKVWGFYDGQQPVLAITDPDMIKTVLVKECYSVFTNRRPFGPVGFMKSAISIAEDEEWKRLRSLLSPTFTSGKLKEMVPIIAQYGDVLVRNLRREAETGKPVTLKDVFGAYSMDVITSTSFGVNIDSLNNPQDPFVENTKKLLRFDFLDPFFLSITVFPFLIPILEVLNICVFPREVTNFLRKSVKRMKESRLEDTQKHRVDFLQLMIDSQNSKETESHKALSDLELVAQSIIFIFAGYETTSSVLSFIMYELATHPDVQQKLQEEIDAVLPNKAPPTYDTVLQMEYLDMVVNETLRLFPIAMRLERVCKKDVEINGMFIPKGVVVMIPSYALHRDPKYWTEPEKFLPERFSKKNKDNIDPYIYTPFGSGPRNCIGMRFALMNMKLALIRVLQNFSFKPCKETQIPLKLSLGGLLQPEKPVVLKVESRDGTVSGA

Row | EC50 (p53 Y220C [1]) [nM] | IC50 (CYP 3A4; [6]) [µM] | IC50 (CYP 3A4; [7]) [µM] | IC50 (CYP 3A4; [8]) [µM] | AUC ([3]; 25 mg/kg, po 25 mpk) [ng·h/mL] | Cmax ([3]; 25 mg/kg, po 25 mpk) [ng/mL] | clearance ([3]; 2.5 mg/kg, iv 2.5 mpk) [mL/min/kg] | GI50 (BxPC-3 cells) [nM] | half-life [4] [min] | half-life [5] [min] | Efflux Ratio (Caco-2 cells) | Papp A to B (Caco-2 cells; A to B) | Papp B to A (Caco-2 cells; B to A) | Compound | Compound EC50 (nM)/Reference compound EC50 (nM) (p53 Y220C [2]) | GI50 (NUGC-3 cells) [nM] | Compound GI50 (nM)/Reference compound GI50 (nM) (NUGC-3 cells)
1 | < 100 | 5.95 | 1.91 | 6.65 | 59700 | 13100 | 11 |  |  |  |  |  |  | [2H]C([2H])([2H])NC(=O)c1ccc(NCC#Cc2nc3c(NC4CCC(N5CCOCC5)CC4F)cccn3c2CC(F)(F)F)c(OC([2H])([2H])[2H])c1 (single isomer, unassigned) [Compound 70d] | A (A: EC50 of the compound≤EC50 of the reference compound) | < 1000 | A (A: GI50 of the compound ≤ GI50 of the reference compound)
2 | < 100 |  |  |  |  |  |  | < 1000 | 65.3 | 16.9 |  |  |  | CNC(=O)c1ccc(NCC#Cc2cc3c(NC4CCC(N5CC6(COC6)C5)CC4F)cccn3c2CC(F)(F)F)c(OC)c1 (single isomer, unassigned) [Compound 65d] | B (B: EC50 of the reference compound<EC50 of the compound≤3.0*EC50 of the reference compound) | < 1000 | B (B: GI50 of the reference compound < GI50 of the compound ≤ 3.0 * GI50 of the reference compound)
3 |  |  |  |  |  |  |  |  |  |  | 2.58 | 2.50 10^−6 cm/s | 6.43 10^−6 cm/s | COc1cc(S(C)(=O)=O)ccc1NCC#Cc1nc2c(NC3CC[C@@H](N4CC5(COC5)C4)C[C@@H]3F)cccn2c1CC(F)(F)F (stereo partly drawn) [Compound 48] | B (B: EC50 of the reference compound<EC50 of the compound≤3.0*EC50 of the reference compound) |  | B (B: GI50 of the reference compound < GI50 of the compound ≤ 3.0 * GI50 of the reference compound)
4 |  | 3.24 | 0.58 | 2.55 |  |  |  |  | 24.9 | 17.1 |  |  |  | CNC(=O)c1ccc(NCC#Cc2cc3c(N[C@@H]4CCN(C)C[C@@H]4F)cccc3n2CC(F)(F)F)c(OC)c1 [Reference compound, reference compound] |  |  | 
